Data from patent US20060039974A1, “Sustained release preparation” (TAKEDA PHARMACEUTICAL COMPANY LIMITED, priority 2002, published 2006).

Assay: Dissolution test, Paddle Method, CTAB-containing The Japanese Pharmacopoeia 2nd fluid
Format: physicochemical
Conditions: after 10 min; control group; 0.1% CTAB-containing JP 2nd fluid 500 mL, 100 rpm
Protocol: To be specific, the tablets obtained in Examples 1-3 were subjected to a dissolution test (Paddle Method, 0.1% cetyltrimethylammoniumbromide (CTAB)-containing The Japanese Pharmacopoeia Degradation Test2nd fluid (hereinafter to be abbreviated as CTAB-containing The Japanese Pharmacopoeia Degradation Test 2nd fluid) 500 mL, number of rotation 100 rpm). In addition, as a control group, the powder of compound A was subjected to a similar dissolution test and found to show a dissolution rate of 99% after 10 min.
To be specific, a dissolution test of the tablet obtained in Example 13 was performed in the same manner as in Experimental Example 1. In addition, as a control group, the tablet of Reference Example 1 was subjected to a similar dissolution test and found to show a dissolution rate of 100% after 10 min.
To be specific, each tablet obtained in Examples 7 and 21 was subjected to a dissolution test (Paddle Method, The Japanese Pharmacopoeia Degradation Test 1st fluid (hereinafter to be abbreviated as The Japanese Pharmacopoeia 1st fluid) 500 mL, number of rotation 100 rpm). In addition, in the same manner as above except that the eluent was a CTAB-containing The Japanese Pharmacopoeia 2nd fluid, a dissolution test of the tablets obtained in Examples 7 and 21 was performed. The results are shown in Table 4 and Table 5, respectively.

Work on `CC(C)Cn1c(CN)c(-c2ccccc2)c2cc(C(N)=O)ccc2c1=O` [Compound A, 3-(aminomethyl)-2-isobutyl-1-oxo-4-phenyl-1,2-dihydroisoquinoline-6-carboxamide] yielded a dissolution rate of 99%.
